Experimental data taken from patent publication US5395610A, “Agents for potentiating the effects of antitumor agents and combating multiple drug resistance” (Burroughs-Wellcome Co., priority 1989, dated 1995).

Experiments:
[1] = system: Chinese hamster ovary (CHO) cells, drug resistant C5S32; assay: In vitro cytotoxicity / potentiation of Actinomycin D in Chinese hamster ovary cells, drug resistant C5S32 (MTT); format: cell-based; conditions: 96 h, fraction of Act D alone (1.00)
[2] = as above; format: cell-based; conditions: hamster, cho c5s32 cells, fraction of untreated cultures (1.00), read-out: Cytotoxicity, normalized absorbance, Drug Resistant C5S32, 0 (no Act D); for viability at 96 h, 1 µM: 1 μM potentiating agent alone; for viability at 96 h, 10 µM: 10 μM potentiating agent alone
in vitro = format: cell-based, Chinese hamster; conditions: hamster, cho auxb1 cells
[3] = system: human KB epidermoid carcinoma cells, wildtype KB 3-1; assay: In vitro cytotoxicity / potentiation of Actinomycin D in human KB epidermoid carcinoma cells, wildtype KB 3-1 (MTT); format: cell-based; conditions: 96 h, fraction of Act D alone
[4] = as above; format: cell-based; conditions: human, kb 3-1 cells, fraction of untreated cultures, read-out: Cytotoxicity, normalized absorbance, Wildtype KB 3-1, 0 (no Act D); for viability at 96 h, 1 µM: 1 μM potentiating agent alone; for viability at 96 h, 10 µM: 10 μM potentiating agent alone
[5] = system: human KB epidermoid carcinoma cells, drug resistant KB V-1; assay: In vitro cytotoxicity / potentiation of Actinomycin D in human KB epidermoid carcinoma cells, drug resistant KB V-1 (MTT); format: cell-based; conditions: 96 h, fraction of Act D alone
[6] = as above; format: cell-based; conditions: human, kb v-1 cells, fraction of untreated cultures, read-out: Cytotoxicity, normalized absorbance, Drug Resistant KB V-1, 0 (no Act D); for viability at 96 h, 1 µM: 1 μM potentiating agent alone; for viability at 96 h, 10 µM: 10 μM potentiating agent alone
[7] = 1 μM potentiating agent + Act D 0.5 μM
[8] = 10 μM potentiating agent + Act D 0.5 μM
[9] = 1 μM potentiating agent + Act D 0.1 nM
[10] = 10 μM potentiating agent + Act D 0.1 nM
[11] = 1 μM potentiating agent + Act D 20 nM
[12] = 10 μM potentiating agent + Act D 20 nM

| SMILES | Synergism with Actinomycin D, normalized absorbance, Drug Resistant C5S32, +ACT D [1, 7] | Synergism with Actinomycin D, normalized absorbance, Drug Resistant C5S32, +ACT D [1, 8] | viability at 96 h, 1 µM [2] [%] | viability at 96 h, 10 µM [2] [%] | viability at 96 h, 1 µM (in vitro) [%] | viability at 96 h, 10 µM (in vitro) [%] | Synergism with Actinomycin D, normalized absorbance, Wildtype KB 3-1, +ACT D [3, 9] | Synergism with Actinomycin D, normalized absorbance, Wildtype KB 3-1, +ACT D [3, 10] | viability at 96 h, 1 µM [4] [%] | viability at 96 h, 10 µM [4] [%] | Synergism with Actinomycin D, normalized absorbance, Drug Resistant KB V-1, +ACT D [5, 11] | Synergism with Actinomycin D, normalized absorbance, Drug Resistant KB V-1, +ACT D [5, 12] | viability at 96 h, 1 µM [6] [%] | viability at 96 h, 10 µM [6] [%] |
| --- | --- | --- | --- | --- | --- | --- | --- | --- | --- | --- | --- | --- | --- | --- |
| Fc1ccc2c(c1)/C(=C\CCN1CCCC1)c1ccccc1CO2 [(T), (Z)-1-[3-(2-fluoro-6,11-dihydrodibenz [b,e]-oxepin-11-ylidene)propyl]pyrrolidine] | 1.00 | 0.53 | 100 | 100 | 100 | 100 | 0.90 | 0.83 | 86 | 81 | 0.92 | 0.64 | 96 | 84 |
| Fc1ccc2c(c1)/C(=C/CCN1CCCC1)c1ccccc1CO2 [(S), (E)-1-[3-(2-fluoro-6,11-dihydrodibenz [b,e]-oxepin-11-ylidene)propyl]pyrrolidine] | 0.94 | 0.58 | 100 | 100 | 91 | 88 | 0.79 | 0.72 | 77 | 67 | 0.84 | 0.48 | 89 | 72 |
| CN(C)CCC=C1c2ccc(Br)cc2COc2ccccc21 [(L), (E)/(Z) -3-(8-Bromo-6,11-dihydrodibenz [b,e]-oxepine-11-ylidene)-N,N-dimethylpropylamine (80% Z:20% E)] | 0.85 | 0.42 | 92 | 99 | 83 | 81 |  | 0.94 | 100 | 97 | 1.00 | 0.23 | 98 | 51 |
| Brc1ccc2c(c1)/C(=C\CCN1CCCC1)c1ccccc1CO2 [(G), (Z)-1-[3-(2-Bromo-6,11-dihydrodibenz [b,e]-oxepin-11-ylidene)propyl]pyrrolidine] | 0.47 | 0.10 | 54 | 15 | 100 | 100 | 0.80 | 0.87 | 87 | 74 | 0.91 | 0.35 | 86 | 70 |
| CN(C)CC/C=C1/c2ccccc2COc2cc(Br)ccc21 [(E)] | 0.66 | 0.35 | 85 | 48 | 100 | 100 | 0.85 | 0.77 | 89 | 89 | 0.74 | 0.01 | 88 | 45 |
